The subject of the series is M17D-TR/αS-3K::YFP cells. Put plainly: α-Syn inclusion-forming neuroblastoma cell experiment (Incucyte). As to conditions: M17D αS-3K::YFP cells; for cell confluence: relative to DMSO vehicle. In kind it is cell-based. On the procedure: FIG. 11. Compound 1 prevents αS inclusion formation. M17D cells expressing the inclusion-prone αS-3K::YFP fusion protein (dox-inducible) were treated with 0.1% DMSO (vehicle; “0 μM”) as well as 1.25, 2.5, 5 and 10 μM of compounds 1, 2 and 8 at t=24 hours after plating. Cells were induced with doxycycline at t=48 hours. A) Incucyte-based analysis of punctate YFP signals relative to 0.1% DMSO was done at t=96 hours (N=3 independent experiments, n=6-18 individual wells total (0 μM, n=18; 10 μM, n=6; all other concentrations, n=12). B) Same as panel A, but confluence fold changes relative to DMSO vehicle (0 μM) were plotted. C) Representative IncuCyte images of reporter cells treated with vehicle vs. 10 μM compounds 1, 2, or 8 (t=96 h), green channel. Arrows indicate αS-rich YFP-positive inclusions. Scale bar, 50 μm. All data are presented as fold-changes relative to DMSO control +/−standard deviation. One-way ANOVA, Dunnett's post-hoc test; *, p<0.05; **, p<0.01; ***, p<0.001.
Chemical and peptide source. Dimethylsulfoxide (DMSO) and thioflavin-T (ThT) were purchased from Alfa Aesar (Ward Hill, MA). Recombinant α-synuclein (α-syn) was procured from rPeptide (WatKinsville, GA). The recombinant p-tau isoform 1N4R was prepared as published previously (Fortin et al. 2021, Sui et al. 2015, Liu et al. 2020). Concerning the preparation of tau 0N4R, a bacterial expression plasmid consisting of the vector pET30a carrying a cDNA encoding the human Tau 0N4R isoform was a kind gift of Dr. Benjamin Wolozin (Boston University). E. coli stock (Rosetta BL21 E. coli (CamR) containing pET30a [0N4R tau wt] (KanR)) was grown in LB medium supplemented with kanamycin (50 μg/mL) and chloramphenicol (50 μg/mL). Protein over-expression was induced by the addition of 1 mM IPTG for ˜18 hours at 37° C., and cells were pelleted by centrifugation at 6,000 g for 15 minutes at 4° C. The cells were resuspended in lysis buffer (10 mM Hepes, pH 7.4, 50 mM NaCl, 1 mM MgCl2, 1 mM PMSF, 1× PIC, and 0.5 mM DTT) and lysed by sonication at 30 seconds “On” and 1 minute “Off” at ˜30-45% power for ˜3-5 minutes. Lysate was centrifuged at 10,000 rpm for 10 minutes at 4° C., and supernatant was transferred with 7.8 ml (total) of 3M NaCl. The lysate was incubated for 10 minutes in 80° C. water bath, then cooled for 10 minutes in an ice bath. The lysate was centrifuged at 10,000 rpm at 4° C. for 10 minutes, and the supernatant was transferred to a new tube. The supernatant was dialyzed overnight against cation exchange buffer (50 mM MES, […], 1 mM DTT, pH 6.0). The dialysate was loaded onto a HiPrep SP HP column, and proteins were eluted with a linear gradient ranging from 50 mM to 1 M NaCl. General Characterizations. ^1H and ^13C {1H} NMR spectra were recorded using a 500 MHz Bruker instrument working at a frequency of 500 MHz for ^1H and at 126 MHz for ^13C. Chemical shifts are reported in ppm using residual solvent resonances as internal reference (δ 2.50 and δ 39.51 for ^1H and ^13C in DMSO-d6, respectively). ^1H NMR data are reported as follows. b=broad, s=singlet, d=doublet, t=triplet, q=quartet, and m=multiplet. Coupling constants are given in hertz. The purity of all compounds and synthetic intermediates was judged to be 95% or better based on ^1H NMR. […] Thioflavin fluorescence assays. Thioflavin fluorescence assays were used to monitor fibril formation of commercial recombinant α-syn at a final concentration of 2 μM and treated with control DMSO and different compounds. […]

The source of these data is patent US20250241890A1, “1,4-DIUREAS AND 1,4-DITHIOUREAS AND USES THEREOF” (Purdue Research Foundation, priority 2024, published 2025).

Consider `S=C(Nc1ccc(NC(=S)Nc2cccc3[nH]ccc23)cc1)Nc1cccc2[nH]ccc12` [Compound 2, 3-(1H-indol-4-yl)-1-(4-{[(1H-indol-4-yl)carbamothioyl]amino}phenyl)thiourea], for which the cell confluence entry (1.25 to 10 μM) is listed as “did not exhibit changes in the cell confluence”. Under “5 and 10 μM, t=96 hours”, the “α-syn inclusion formation (punctate YFP signals relative to DMSO)” value was “increased the inclusions”. For the compound `S=C(Nc1ccc(NC(=S)Nc2cccc3cc[nH]c23)cc1)Nc1cccc2cc[nH]c12` [Compound 8, 3-(1H-indol-7-yl)-1-(4-{[(1H-indol-7-yl)carbamothioyl]amino}phenyl)thiourea], the cell confluence result (1.25 to 10 μM) is “did not exhibit changes in the cell confluence”. Also, the “numbers of α-syn inclusions” value (1.25 to 10 μM, t=96 hours) was “very minimal changes in the numbers of inclusions”. With `O=C(Nc1ccc(NC(=O)Nc2cccc3[nH]ccc23)cc1)Nc1cccc2[nH]ccc12` [Compound 1, 3-(1H-indol-4-yl)-1-(4-{[(1H-indol-4-yl)carbamoyl]amino}phenyl)urea], under “1.25 to 10 μM”, the cell confluence result was “did not exhibit changes in the cell confluence”.
